Here are results for eight molecules from patent publication US10000452B1, “Quinolone-based compounds, formulations, and uses thereof” (University of South Florida, priority 2016, dated 2018).

In brackets after ≈: the same amount, converted by molar mass. Several values for one entry are separate records, joined by “and”; a condition that tells them apart may be missing. Equal values may be shown once. Read-outs that look alike come from different tables or passages of the source.

One data set relates to P. berghei-GFP parasites. As to the kind of experiment: modified Thompson test. The class given is in vivo, P. berghei; mice. As to conditions: for No. of Cures: survival to day 30 PI with parasitemia <1%; for day mice were sacrificed: Example 2: 10 mg/kg oral days 3, 4, 5, controls sacrificed day 13; for % inhibition on day 6 PE: Example 2: 10 mg/kg oral days 3, 4, 5 in HEC/Tween, Giemsa-stained smears. Here is the method: Mice were infected with 1×10^6 P. berghei-GFP parasites and compounds were dosed orally on days 3, 4 and 5 PI with a dose of 10 mg/kg of compound suspended or dissolved in HEC/Tween or PEG 400. Parasitemia was observed by flow cytometry on days 3, 6, 9, 13, 21, and 30 PI. Compounds with animal survival up to day 30 PI and parasitemia levels of less than 1% on day 30 PI were considered to be cures. Lastly, animals with more than 40% parasitemia levels were euthanized.
On days 3, 6, 9, 13, 21, and 30 PE, parasitemia was monitored by Giemsa-stained blood smears. Both compounds were evaluated by the reduction of parasitemia on day 6 PE and the survival up to day 30 PE.

A further data set deals with J774 mammalian cells. As to the kind of experiment: cytotoxicity to J774 cells. As to conditions: Mus musculus. Format: cell-based. Here is the method:
This allowed a simplified method for comparing the different assays being simultaneously run. Additionally, each compound was also tested for cytotoxicity using mammalian J774 cell lines in a 96-well plate format.^12-14, 16

Data set [1] relates to malarial strain TM90-C2B (mefloquine, chloroquine, atovaquone, and pyrimethamine-resistant). As to the kind of experiment: microbe, parasite or virus in culture. The class given is cell-based, P. falciparum. The conditions noted are these: for EC50: Plasmodium falciparum. The source says:
Ideally, the RI of a compound should lie between 0.3 and 3.0 in order to avoid rapidly inducing resistance in the parasite. […]

Data set [2] concerns P. berghei sporozoites expressing luciferase. As to the kind of experiment: in vitro liver stage activity, luciferase sporozoites infecting HEPG2 hepatoma cells. The class given is cell-based. As to conditions: Plasmodium berghei.
The subject of data set [3] is malarial strain W2 (pyrimethamine and chloroquine-resistant). As to the kind of experiment: in vitro antimalarial activity against multidrug resistant strain W2. The conditions noted are these: Plasmodium falciparum. Format: cell-based, P. falciparum.
Data set [4] is described as follows: aqueous solubility (LC/MS- or HPLC-based assay). Format: physicochemical. In short, it runs like this:
(§1)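 Aqueous solubility and log D (pH 7.4) determined by LC/MS-based assays; solubility examined at more than one pH.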

Data set [5] in a line: lipophilicity log D at pH 7.4. As to conditions: octanol/water. Format: physicochemical. In short, it runs like this:
as §1

Another data set relates to Pb-infected mice. As to the kind of experiment: in vivo efficacy scouting assay against blood stages. Also noted: species or system P. berghei; mice. The conditions noted are these: for inhibition in vivo at 50 mg/kg: Plasmodium berghei, po, 144 h, read-out: % Inhibition Day 6 PI; for activities in these scout assays / % Inhibition Day 3 PI / % Inhibition Day 6 PI: single oral 50 mg/kg dose 1 day PI; for activities in these scout assays: result in words; for % Inhibition Day 3 PI / % Inhibition Day 6 PI: vs untreated animals. On the procedure:
The screening involved a single oral 50 mg/kg dose 1 day post infection (PI) and an assessment of parasitemia on days 3 PI and 6 PI (Table 6).
The screening was performed by treating two infected mice with a single 50 mg/kg oral dose of test compound suspended in PEG400 on day 1 postexposure (PE) followed by assessing parasitemia on days 3 and 6 PE.

Data set [6] deals with malarial strain TM90-C2B (mefloquine, chloroquine, atovaquone, and pyrimethamine-resistant). The conditions noted are these: previous work; cited from earlier work.
Data set [7] addresses P. berghei sporozoites expressing luciferase. As to conditions: previous work; read-out: liver stage activity; cited from earlier work.
The mark [8] stands for this setting: 10 mg/kg oral on days 3, 4 and 5 PI.
Setting [9] is: aqueous solution (buffer not named), pH 2, simulated gastric fluid, pH 2.0, read-out: Solubility pH 2.0.
Setting [10] is: aqueous solution (buffer not named), pH 6.5, aqueous buffer, pH 6.5, read-out: Solubility pH 6.5.
Where [11] appears, read: TM90, read-out: EC50 TM90-C2B (nM).
Where [12] appears, read: 10 mg/kg oral on days 3, 4 and 5 PI, vs untreated control animals.
[13] abbreviates: Example 2: two mice, single 50 mg/kg oral dose in PEG400 on day 1 PE.
Where [14] appears, read: aqueous solution, pH 2, simulated gastric fluid, pH 2.0, read-out: Solubility pH 2.0.
Setting [15] is: aqueous solution, pH 6.5, aqueous buffer, pH 6.5, read-out: Solubility pH 6.5.

For the molecule `O=C1C(O)=C([C@H]2CC[C@H](c3ccc(Cl)cc3)CC2)C(=O)c2ccccc21` [Atovaquone, atovaquone, reference compound], the “No. of Cures” value in the data set with P. berghei-GFP parasites (setting [8]) is recorded as 5/5. Besides, the EC50 in the data set on J774 mammalian cells (J774, cytotoxicity, 96 well plate format, read-out: EC50 J774) is 28.3 µM; in data set [1] (TM90, read-out: EC50 TM90-C2B), 18400 nM.
In general, solubility refers to the concentration that dissolves in the medium under given conditions. In general, chromatographic logD refers to a lipophilicity value derived from retention on a column. For `Cc1[nH]c2cc(CN3CCN(c4ccc(F)cc4)CC3)ccc2c(=O)c1Br` [Compound 8an, 3-Bromo-7-((4-(4-fluorophenyl)piperazin-1-yl)methyl)-2-methylquinolin-4(1H)-one], the EC50 in data set [2] (HEPG2 cells) was 26200 pM; in data set [3] (read-out: EC50 W2 (nM)), 25.1 nM; with J774 mammalian cells (J774, read-out: EC50 J774 (μM)), > 20 µM; in [1] (setting [11]) it was 25.5 nM. The figures for the solubility in [4] (setting [9]) and in [4] (setting [10]) were ≥ 80 µM and 1 to 19.9 µM (≈ 0.43 to 8.56 µg/mL), respectively. Moreover, in [5], the chromatographic logD came to 2.83. Besides, the “Avg. Day of Death” value with P. berghei-GFP parasites (setting [8]) is 13. Further, the “No. of Cures” value in the data set on P. berghei-GFP parasites (setting [8]) is on record as 0/5. Moreover, the inhibition in vivo at 10 mg/kg in the data set with P. berghei-GFP parasites (Plasmodium berghei, in Mus musculus, 144 h, 10 mg/kg oral on days 3, 4 and 5 PI, vs untreated control animals, read-out: % Inhibition Day 6 PI) was 90.9%. Also, the inhibition in vivo at 50 mg/kg in the data set on Pb-infected mice is > 85%. Besides, the “activities in these scout assays” value with Pb-infected mice is “excellent activities”. Besides, in the data set on Pb-infected mice, the “% Inhibition Day 3 PI” value is on record as “full inhibition”. The “% Inhibition Day 6 PI” value with Pb-infected mice is given as “completely inhibited parasite growth”.
On to `Cc1[nH]c2cc(CN3CCN(c4ccc(F)cc4)CC3)ccc2c(=O)c1Cl` [Compound 8ao, 3-Chloro-7-((4-(4-fluorophenyl)piperazin-1-yl)methyl)-2-methylquinolin-4(1H)-one], for which the EC50 was 38.5 nM in data set [3] (read-out: EC50 W2 (nM)); > 20 µM in the data set with J774 mammalian cells (J774, read-out: EC50 J774 (μM)); 52.1 nM in [1] (setting [11]). Besides, the solubility was ≥ 80 µM in [4] (setting [9]) and 1 to 19.9 µM (≈ 0.386 to 7.68 µg/mL) in data set [4] (setting [10]). This molecule also returned a chromatographic logD in [5] of 2.73. In addition, in the data set on P. berghei-GFP parasites (setting [8]), the “No. of Cures” value is reported as 0/5. In addition, the “% Inhibition Day 6 PI” value in the data set on P. berghei-GFP parasites (setting [12]) is “low inhibition”.
In the case of `CCCCc1cc2c(=O)c(Br)c(C)[nH]c2cc1OCCOc1ccccc1` [Compound 16c, 3-Bromo-6-butyl-2-methyl-7-(2-phenoxyethoxy)quinolin-4(1H)-one], the EC50 was 2.6 nM in data set [3] (read-out: EC50 W2 (nM)), 2.12 nM in [7] and 12.2 nM in data set [1] (setting [11]). The “fold more soluble in comparison to 6b” value in [4] (Example 2) is on record as “approximately 10”. The “resistance index (RI)” value in data set [6] is listed as 4.69. In addition, in the data set on P. berghei-GFP parasites, the “day mice were sacrificed” value amounted to 13. Also, the entries for the “% inhibition on day 6 PE” value with P. berghei-GFP parasites and with Pb-infected mice (setting [13]) were 61% and 49.5%, respectively.
On to `COC(=O)c1c[nH]c2cc(CN3CCN(c4ccc(C(F)(F)F)cc4)CC3)c(C)cc2c1=O` [Compound 8v, Methyl 6-methyl-4-oxo-7-((4-(4-(trifluoromethyl)phenyl)piperazin-1-yl)methyl)-1,4-dihydroquinoline-3-carboxylate], for which the EC50 was 0.066 nM in data set [3] (read-out: EC50 W2); 0.066 nM in data set [3] (read-out: EC50 W2 (nM)); > 20 µM in the data set on J774 mammalian cells (J774, read-out: EC50 J774 (μM)); 101 nM in [1] (setting [11]). The figures for the solubility in data set [4] (setting [14]) and in [4] (setting [15]) were ≥ 80 µM and 1 to 19.9 µM (≈ 0.459 to 9.14 µg/mL), respectively. Also, the chromatographic logD in data set [5] came to 3.73. In the data set on P. berghei-GFP parasites (setting [8]), the “No. of Cures” value was 3 of the 5 and 3/5. The inhibition in vivo at 50 mg/kg in the data set on Pb-infected mice is > 85%. Further, in the data set with Pb-infected mice, the “activities in these scout assays” value is on record as “excellent activities”. Besides, the “% Inhibition Day 3 PI” value in the data set with Pb-infected mice is on record as “full inhibition”. The “% Inhibition Day 6 PI” value in the data set on Pb-infected mice was “completely inhibited parasite growth”. The RI in data set [1] (RI = EC50 TM90-C2B/EC50 W2) is given as 1530.
Consider `CCCCc1cc2c(=O)c(C(=O)OC)c[nH]c2cc1OCCOc1ccccc1` [Compound 6b, Methyl 6-Butyl-4-oxo-7-(2-phenoxyethoxy)-1,4-dihydroquinoline-3-carboxylate, reference compound], for which the EC50 came out at 52 pM in data set [2] (HepG2, text values printed in pM); 0.039 nM in [3] (read-out: EC50 W2); 7.89 nM in data set [1] (setting [11]). Moreover, the “day mice were sacrificed” value with P. berghei-GFP parasites is 13. In addition, the “% inhibition on day 6 PE” value in the data set with P. berghei-GFP parasites is recorded as “no inhibition”; with Pb-infected mice (setting [13]) it was 49%. In the data set with Pb-infected mice (setting [13]), the “% inhibition on day 3 PE” value was 76.9%.
In turn, `COC(=O)c1c[nH]c2cc(CN3CCN(c4ccc(C(F)(F)F)cc4)CC3)c(OC)cc2c1=O` [Compound 8ab, Methyl 6-methoxy-4-oxo-7-((4-(4-(trifluoromethyl)phenyl)piperazin-1-yl)methyl)-1,4-dihydroquinoline-3-carboxylate] returned an EC50 in data set [2] (HEPG2 cells) of 9580 pM. Moreover, the EC50 in [3] (read-out: EC50 W2 (nM)) was 6.42 nM. Moreover, the solubility in [4] (setting [14]) is 1 to 19.9 µM (≈ 0.475 to 9.46 µg/mL). For the same molecule, in [4] (setting [15]), the solubility lay within 1 to 19.9 µM (≈ 0.475 to 9.46 µg/mL). In data set [5], this molecule had a chromatographic logD of 1.29. Moreover, the “No. of Cures” value in the data set with P. berghei-GFP parasites (setting [8]) is 3 of the 5 and 3/5. In the data set with Pb-infected mice, the inhibition in vivo at 50 mg/kg was > 85%, the “activities in these scout assays” value was “excellent activities”, the “% Inhibition Day 3 PI” value is reported as “full inhibition” and the “% Inhibition Day 6 PI” value is given as “completely inhibited parasite growth”. Moreover, the EC50 in the data set on J774 mammalian cells (J774, read-out: EC50 J774 (μM)) is > 20 µM.
Consider `O=c1c(Br)c[nH]c2cc(CN3CCN(c4ccc(F)cc4)CC3)ccc12` [Compound 8ak, 3-Bromo-7-((4-(4-fluorophenyl)piperazin-1-yl)methyl) quinolin-4(1H)-one], for which the EC50 in [2] (HEPG2 cells) was 858 pM; in [3] (read-out: EC50 W2 (nM)) it was 812 nM; with J774 mammalian cells (J774, read-out: EC50 J774 (μM)) it was > 20 µM; in [1] (setting [11]) it was 2430 nM. Moreover, the solubility in [4] (setting [9]) is ≥ 80 µM; in data set [4] (setting [10]), 20 to 39.9 µM (≈ 8.33 to 16.6 µg/mL). For the same molecule, the chromatographic logD in [5] was 2.91. Also, in the data set on P. berghei-GFP parasites (setting [8]), the “No. of Cures” value is 0/5. In addition, the “% Inhibition Day 6 PI” value in the data set on P. berghei-GFP parasites (setting [12]) was “low inhibition”.
